Assay results: publication PMC11247081 (Signal Transduction and Targeted Therapy, 2024)

Key:
[1] = pre-clinical studies; cited from earlier work
[2] = pre-clinical studies; cited from earlier work; remark: listed apart in the source
[3] = Pharmacokinetics of SHR-A1811, total antibody and free payload (non-compartmental); conditions: for Tmax: median (range)
HER2-mutant NSCLC = conditions: pretreated patients with HER2-mutant NSCLC; cited from earlier work
[4] = multiple dosing (cycle 3), SHR-A1811 […] (n=3), PK data available for 1 patient
[5] = single dosing (cycle 1), SHR-A1811 8.0 mg/kg (n=3), mean (SD)

For `CC[C@@]1(O)C(=O)OCc2c1cc1n(c2=O)Cc2c-1nc1cc(F)c(C)c3c1c2[C@@H](NC(=O)[C@H](O)C1CC1)CC3` [Free payload], the “membrane permeability compared with the payload of T-DXd” value [1] is listed as “superior”, the “cytotoxicity compared with the payload of T-DXd” value [2] is listed as “superior” and the “exposure (Cmax, AUC0−21d, AUC0−t, and AUC0−∞) versus dose” value ([3]; after single dosing, over the tested dose range) is listed as “increased in a dose-dependent manner”. The “plasma exposure compared with ADC and TAb” value ([3]; all studied dose levels) was “much lower”, the t1/2 [3, 4] was 5.6 (NC) day and the Tmax [3, 4] was 0.105 (0.1050-0.1050) day. For the same compound, the t1/2 ([3]; multiple dosing (cycle 3), SHR-A1811 […] (n=3), mean (SD)) was 5.7 (0.5) day, the Tmax ([3]; multiple dosing (cycle 3), SHR-A1811 […] (n=3)) was 0.124 (0.1150-0.1320) day and the t1/2 ([3]; multiple dosing (cycle 3), SHR-A1811 […] (n=10), mean (SD)) was 6.5 (1.6) day. The Tmax ([3]; multiple dosing (cycle 3), SHR-A1811 […] (n=10)) was 0.117 (0.1050-0.1190) day, the t1/2 ([3]; multiple dosing (cycle 3), SHR-A1811 […] (n=41), mean (SD)) was 6.3 (1.0) day and the Tmax ([3]; multiple dosing (cycle 3), SHR-A1811 […] (n=41)) was 0.104 (0.0806-7.0200) day. For the same compound, the AUC0-21d [3, 5] was 23.5 (7.4) day·ng/mL, the AUC0-t [3, 5] was 22.8 (6.2) day·ng/mL and the “AUC0-∞” value [3, 5] was 25.2 (7.6) day·ng/mL. For the same compound, the Cmax [3, 5] was 3.9 (1.0) ng/mL, the MRT [3, 5] was 7.6 (1.8) day and the t1/2 [3, 5] was 5.5 (1.1) day. For the same compound, the Tmax ([3]; single dosing (cycle 1), SHR-A1811 8.0 mg/kg (n=3)) was 1.0600 (0.3960-1.0600) day, the t1/2 ([3]; single dosing (cycle 1), SHR-A1811 […] (n=10), mean (SD)) was 5.9 (1.1) day and the Tmax ([3]; single dosing (cycle 1), SHR-A1811 […] (n=10)) was 0.3990 (0.1470-1.0200) day. For the same compound, the t1/2 ([3]; single dosing (cycle 1), SHR-A1811 […] (n=41), mean (SD)) was 5.2 (0.6) day and the Tmax ([3]; single dosing (cycle 1), SHR-A1811 […] (n=41)) was 0.3960 (0.0236-1.0600) day.

In the case of Trastuzumab emtansine [T-DM1], the ORR (HER2-mutant NSCLC) is listed as 44% and the “median DoR” value (HER2-mutant NSCLC) is listed as 4 months.
